Data: ChEMBL document CHEMBL5385844, “Discovery of novel imidazole chemotypes as isoform-selective JNK3 inhibitors for the treatment of Alzheimer's disease” (Eur J Med Chem, 2023)
Calls of active or inactive are those of the source. No cut-off for these calls is given here.

Experiments:
[1] = target: Mitogen-activated protein kinase 14 (Homo sapiens, UniProt Q16539); experiment: Inhibition of human SAPK2a assessed as incorporation of 33P-ATP
[2] = target: Mitogen-activated protein kinase 10 (Rattus norvegicus) (UniProt P49187); experiment: Inhibition of JNK3 in anisomycin-induced c-Jun phosphorylation in primary rat cortex neuron assessed as decrease in c-Jun phosphorylation at 20 uM pretreated for 90 mins followed by treated with anisomycin further incubated for 40 mins by Western blot analysis; assay type: cell-based; conditions: Primary cortical neuron
[3] = Plasma concentration in Sprague-Dawley rat at 30 mg/kg, po measured at Tmax; assay type: ADME, organism-based
[4] = target: T1, Mitogen-activated protein kinase 9 (Homo sapiens, UniProt P45984); experiment: Inhibition of human JNK2alpha1 assessed as incorporation of 33P-ATP
[5] = target: T1, Mitogen-activated protein kinase 9; experiment: Inhibition of human JNK2 incubated for 40 mins in presence of ATP and [gamma33P-ATP] by scintillation counting method
[6] = target: Mitogen-activated protein kinase 10 (Rattus norvegicus) (UniProt P49187); experiment: Inhibition of JNK3 in Amyloid beta (1 to 42)-induced c-Jun phosphorylation in primary rat cortex neuron assessed as decrease in c-Jun phosphorylation incubated for 24 hrs by Western blot analysis; assay type: cell-based; conditions: Primary cortical neuron, dose 10-20 µM
[7] = target: T2, Dual specificity mitogen-activated protein kinase kinase 4 (Homo sapiens, UniProt P45985); experiment: Inhibition of MKK4 (unknown origin) assessed as incorporation of 33P-ATP
T2 sequence (P45985 whole entry): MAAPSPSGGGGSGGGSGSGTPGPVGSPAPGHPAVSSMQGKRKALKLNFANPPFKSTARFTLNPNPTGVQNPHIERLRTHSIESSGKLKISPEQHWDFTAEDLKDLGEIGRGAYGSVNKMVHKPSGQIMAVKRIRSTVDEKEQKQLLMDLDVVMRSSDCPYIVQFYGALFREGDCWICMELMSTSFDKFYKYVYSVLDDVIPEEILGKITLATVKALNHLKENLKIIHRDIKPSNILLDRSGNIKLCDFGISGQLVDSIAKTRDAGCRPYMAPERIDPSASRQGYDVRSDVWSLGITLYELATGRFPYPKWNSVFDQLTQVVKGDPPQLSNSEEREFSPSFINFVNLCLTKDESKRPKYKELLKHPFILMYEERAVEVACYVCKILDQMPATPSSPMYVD

[8] = Half life in Sprague-Dawley rat at 3 mg/kg, po measured upto 24 hrs by UPLC analysis; assay type: ADME, organism-based; conditions: in vivo
[9] = Apparent permeability across basolateral to apical side in human Caco-2 cells at 10 uM incubated for 1 hr by LC-MS/MS analysis; assay type: ADME, cell-based
[10] = Toxicity in APP/PS1 mouse assessed as weight change at 10 mg/kg, po treated 3 times/week for 1 month; assay type: organism-based; conditions: in vivo, 730 h, time 1 months
[11] = target: Mitogen-activated protein kinase 8 (Homo sapiens, UniProt P45983); experiment: Inhibition of human JNK1alpha1 assessed as incorporation of 33P-ATP
Mus musculus [12] = experiment: Anti-alzheimer activity against homozygous 3 x Tg mouse model assessed as spontaneous alteration at 30 mg/kg, po administered daily for 2 months and measured after 57 days of treatment by Y-maze test (reference value: 46.81 +/- 2.76%); assay type: functional; conditions: 1460 h
[13] = target: T3, MAPK/MAK/MRK overlapping kinase (Homo sapiens, UniProt Q9UQ07); experiment: Inhibition of MOK (unknown origin) assessed as incorporation of 33P-ATP
T3 sequence (Q9UQ07 whole entry): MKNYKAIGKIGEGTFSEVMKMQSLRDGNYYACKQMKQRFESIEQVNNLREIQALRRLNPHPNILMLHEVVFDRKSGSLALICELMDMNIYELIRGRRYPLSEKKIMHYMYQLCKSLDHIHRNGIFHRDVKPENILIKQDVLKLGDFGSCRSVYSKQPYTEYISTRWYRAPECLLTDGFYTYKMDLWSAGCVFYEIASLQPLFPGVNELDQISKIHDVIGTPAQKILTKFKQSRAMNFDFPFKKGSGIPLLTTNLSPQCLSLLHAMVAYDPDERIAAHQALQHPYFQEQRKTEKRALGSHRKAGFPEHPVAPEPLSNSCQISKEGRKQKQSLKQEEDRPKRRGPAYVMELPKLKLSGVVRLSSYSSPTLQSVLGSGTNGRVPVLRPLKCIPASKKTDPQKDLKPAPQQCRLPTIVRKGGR

[14] = target: Mitogen-activated protein kinase 10 (Rattus norvegicus) (UniProt P49187); experiment: Inhibition of JNK3 mediated anisomycin-induced APP phosphorylation in rat cortical neurons at 10 to 20 uM incubated for 24 hrs by Western blot analysis; assay type: cell-based; conditions: Cortical neuron, dose 10-20 µM
[15] = AUC in Sprague-Dawley rat at 1 mg/kg, iv measured upto 24 hrs by UPLC analysis; assay type: ADME, organism-based; set-up: dose 1 mg/kg, time < 24 hrs, route iv; conditions: in vivo
Mus musculus [16] = experiment: Anti-alzheimer activity against APP/PS1 dE9 double transgenic mouse model assessed as spontaneous alteration at 10 mg/kg, po administered 3 times/week for 1 month and measured after 27 days of treatment by Y-maze test (reference value: 46.70 +/- 3.32%); assay type: functional; conditions: time 1 months, 730 h
Cortical neurone [17] = experiment: Neuroprotective activity against Amyloid beta (1 to 42)-induced toxicity in rat cortical neuron assessed as cell viability at 20 uM measured after 48 hrs by MTT assay; assay type: functional; conditions: read-out: Activity
Cortical neurone [18] = experiment: Neuroprotective activity against Amyloid beta (1 to 42)-induced toxicity in rat cortical neuron assessed as cell viability measured after 24 to 48 hrs by MTT assay; assay type: functional, cell-based; conditions: time 24-48 hrs
[19] = Drug uptake in Sprague-Dawley rat brain at 30 mg/kg, po measured at Tmax; assay type: ADME, organism-based; conditions: in vivo

Chain of Mitogen-activated protein kinase 10 (Rattus norvegicus) (P49187 whole entry): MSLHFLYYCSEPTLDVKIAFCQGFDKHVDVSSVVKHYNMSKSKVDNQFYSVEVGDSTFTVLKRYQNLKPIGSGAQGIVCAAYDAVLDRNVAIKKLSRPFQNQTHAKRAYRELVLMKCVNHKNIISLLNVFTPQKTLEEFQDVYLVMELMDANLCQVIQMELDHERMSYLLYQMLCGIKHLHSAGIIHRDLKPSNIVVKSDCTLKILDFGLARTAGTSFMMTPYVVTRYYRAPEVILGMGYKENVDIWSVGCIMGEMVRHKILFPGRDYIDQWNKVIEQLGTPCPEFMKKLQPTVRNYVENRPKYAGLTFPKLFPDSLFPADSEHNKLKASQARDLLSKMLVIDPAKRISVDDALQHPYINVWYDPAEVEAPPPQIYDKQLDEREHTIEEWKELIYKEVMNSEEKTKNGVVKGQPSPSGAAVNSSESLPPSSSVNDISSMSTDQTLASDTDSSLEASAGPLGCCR
T1 sequence (P45984 whole entry): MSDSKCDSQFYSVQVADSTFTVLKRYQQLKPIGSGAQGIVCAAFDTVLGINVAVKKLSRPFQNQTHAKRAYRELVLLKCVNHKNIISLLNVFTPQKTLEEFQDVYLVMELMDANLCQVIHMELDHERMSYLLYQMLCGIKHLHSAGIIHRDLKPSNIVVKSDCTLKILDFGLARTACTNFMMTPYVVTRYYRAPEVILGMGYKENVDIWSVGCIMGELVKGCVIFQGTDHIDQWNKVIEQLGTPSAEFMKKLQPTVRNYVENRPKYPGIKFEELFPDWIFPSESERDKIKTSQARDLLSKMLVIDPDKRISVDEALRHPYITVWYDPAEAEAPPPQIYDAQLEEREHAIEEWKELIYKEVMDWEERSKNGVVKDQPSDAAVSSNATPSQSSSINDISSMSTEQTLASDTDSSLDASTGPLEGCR
Chain of Mitogen-activated protein kinase 14 (Q16539 whole entry): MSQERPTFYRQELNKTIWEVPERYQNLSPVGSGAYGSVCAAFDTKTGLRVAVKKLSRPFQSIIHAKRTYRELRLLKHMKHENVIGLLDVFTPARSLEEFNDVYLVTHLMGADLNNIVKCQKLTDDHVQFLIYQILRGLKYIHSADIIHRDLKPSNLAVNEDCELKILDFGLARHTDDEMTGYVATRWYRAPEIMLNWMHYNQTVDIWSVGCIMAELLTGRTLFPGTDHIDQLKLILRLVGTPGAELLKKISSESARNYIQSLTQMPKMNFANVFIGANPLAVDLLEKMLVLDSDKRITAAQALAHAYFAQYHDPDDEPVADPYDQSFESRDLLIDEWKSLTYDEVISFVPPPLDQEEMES
Chain of Mitogen-activated protein kinase 8 (P45983 whole entry): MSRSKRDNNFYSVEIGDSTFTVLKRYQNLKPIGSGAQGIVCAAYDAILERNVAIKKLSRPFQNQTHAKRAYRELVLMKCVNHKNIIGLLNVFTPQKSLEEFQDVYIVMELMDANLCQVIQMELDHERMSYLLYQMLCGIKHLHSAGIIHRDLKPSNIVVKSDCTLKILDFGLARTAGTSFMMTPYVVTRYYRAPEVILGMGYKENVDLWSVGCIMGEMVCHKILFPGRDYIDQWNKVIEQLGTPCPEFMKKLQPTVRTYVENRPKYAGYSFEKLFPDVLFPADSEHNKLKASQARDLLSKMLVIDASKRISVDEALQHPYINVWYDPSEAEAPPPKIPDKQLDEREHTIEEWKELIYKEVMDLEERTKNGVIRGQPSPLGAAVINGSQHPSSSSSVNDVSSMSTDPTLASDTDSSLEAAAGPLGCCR

SMILES: N#CCc1cnc(-c2ccc3ccccc3c2)n1-c1ccnc(N[C@H]2CCCN(C(=O)C3CC3)C2)n1
- IC50 [1]: 310 nM
- Activity [2]: Active
- Cmax [3]: 1080 ng/mL
- IC50 [4]: 340 nM
- IC50 [5]: 144 nM
- Activity [6]: Dose-Dependent Effect
- IC50 [7]: 970 nM
- half-life [8]: 20.4 min
- Papp B→A at 1 h, 10 µM [9]: 26.4 ×10⁻⁶ cm/s
- Activity [10]: Non-Toxic
- IC50 [11]: 860 nM
- Activity (Mus musculus [12]): 50.97%
- IC50 [13]: 1180 nM
- inhibition [14]: Active
- AUC at 24 h [15]: 718 ng·h/mL
- Activity (Mus musculus [16]): 52.31%
- viability at 20 µM (Cortical neurone [17]): 46.8%
- Activity (Cortical neurone [18]): Dose-Dependent Effect
- Drug uptake [19]: 26 ng/g
